A short description of data set [1]: cells. The settings on record: Homo sapiens, SU-DHL-1, 72 h.
For data set [2], the target named is T1, Ephrin type-A receptor 3 (Homo sapiens) (UniProt P29320).
T1 sequence (whole entry): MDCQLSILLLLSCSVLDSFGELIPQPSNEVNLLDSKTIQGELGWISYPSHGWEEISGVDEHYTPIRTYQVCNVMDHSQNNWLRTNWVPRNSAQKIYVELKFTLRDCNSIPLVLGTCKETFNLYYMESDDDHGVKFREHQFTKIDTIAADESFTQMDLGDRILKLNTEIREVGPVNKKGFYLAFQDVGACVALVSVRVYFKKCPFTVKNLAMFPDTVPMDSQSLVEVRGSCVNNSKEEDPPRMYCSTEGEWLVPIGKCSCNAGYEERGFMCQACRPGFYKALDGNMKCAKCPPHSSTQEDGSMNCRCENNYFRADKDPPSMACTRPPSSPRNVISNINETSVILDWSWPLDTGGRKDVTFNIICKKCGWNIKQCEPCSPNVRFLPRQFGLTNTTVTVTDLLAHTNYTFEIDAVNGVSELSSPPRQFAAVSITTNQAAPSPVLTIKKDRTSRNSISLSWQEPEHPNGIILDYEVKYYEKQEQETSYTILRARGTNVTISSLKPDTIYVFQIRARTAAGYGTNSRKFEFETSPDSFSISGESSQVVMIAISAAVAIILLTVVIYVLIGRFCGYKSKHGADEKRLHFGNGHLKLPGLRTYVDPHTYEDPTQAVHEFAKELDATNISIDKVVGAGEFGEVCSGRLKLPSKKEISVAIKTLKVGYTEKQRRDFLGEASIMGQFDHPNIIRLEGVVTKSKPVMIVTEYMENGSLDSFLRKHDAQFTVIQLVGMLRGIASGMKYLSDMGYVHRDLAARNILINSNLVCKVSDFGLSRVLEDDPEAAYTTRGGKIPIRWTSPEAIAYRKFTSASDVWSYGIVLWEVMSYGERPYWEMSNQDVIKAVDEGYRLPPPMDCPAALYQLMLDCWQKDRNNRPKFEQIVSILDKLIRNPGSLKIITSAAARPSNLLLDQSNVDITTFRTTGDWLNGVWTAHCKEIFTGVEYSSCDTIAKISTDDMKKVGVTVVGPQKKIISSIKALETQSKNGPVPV
The experiment in a line: Binding affinity to EPHA3 (unknown origin) assessed as increase in change in melting temperature by differential scanning fluorimetric analysis. (In general: Differential scanning fluorimetry follows unfolding on heating by fluorescence.)

The target of data set [3] is T2, Ephrin type-B receptor 4 (Homo sapiens, UniProt P54760).
T2 sequence (P54760 whole entry): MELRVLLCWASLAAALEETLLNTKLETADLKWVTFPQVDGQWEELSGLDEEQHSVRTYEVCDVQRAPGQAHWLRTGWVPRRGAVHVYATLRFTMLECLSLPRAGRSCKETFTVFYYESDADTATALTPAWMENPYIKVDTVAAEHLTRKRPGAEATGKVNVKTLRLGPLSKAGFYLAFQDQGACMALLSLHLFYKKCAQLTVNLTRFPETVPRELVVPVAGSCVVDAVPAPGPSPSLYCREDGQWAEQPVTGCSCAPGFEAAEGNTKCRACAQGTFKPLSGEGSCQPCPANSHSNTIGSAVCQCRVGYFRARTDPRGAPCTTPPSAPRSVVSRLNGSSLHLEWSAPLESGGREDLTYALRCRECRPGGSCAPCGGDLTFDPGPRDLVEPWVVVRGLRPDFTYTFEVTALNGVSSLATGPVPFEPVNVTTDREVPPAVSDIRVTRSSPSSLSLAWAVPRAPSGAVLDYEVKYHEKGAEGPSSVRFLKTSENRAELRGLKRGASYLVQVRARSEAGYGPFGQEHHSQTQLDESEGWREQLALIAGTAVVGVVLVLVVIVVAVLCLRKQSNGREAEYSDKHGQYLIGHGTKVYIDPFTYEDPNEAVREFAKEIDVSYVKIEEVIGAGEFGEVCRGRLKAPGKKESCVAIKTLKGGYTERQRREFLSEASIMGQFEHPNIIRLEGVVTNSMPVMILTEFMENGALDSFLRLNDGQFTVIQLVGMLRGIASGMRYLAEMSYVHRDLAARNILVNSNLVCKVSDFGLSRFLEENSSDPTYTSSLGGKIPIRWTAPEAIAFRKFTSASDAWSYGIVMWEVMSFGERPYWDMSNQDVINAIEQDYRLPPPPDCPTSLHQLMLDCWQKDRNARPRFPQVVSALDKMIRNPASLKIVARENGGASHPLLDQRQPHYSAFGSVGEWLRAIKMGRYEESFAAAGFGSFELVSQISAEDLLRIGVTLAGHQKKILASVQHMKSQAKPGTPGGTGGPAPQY
Description: Inhibition of full-length human EPHB4 expressed in MEF cells assessed as autophosphorylation by sandwitch-ELISA. The class given is cell-based. (In general: ELISA stands for enzyme-linked immunosorbent assay.)

Data set [4] is described as follows: cells. The settings on record: Homo sapiens, PCL12, 72 h.
For data set [5], the system named is Maver1. Description: cells. The settings on record: Homo sapiens, Maver1, 72 h.
Data set [6] is described as follows: Antitumor activity against human Ri1 cells xenografted in NOD-SCID mouse assessed as fold change in tumor size at 100 mg/kg, ip administered for 2 weeks by caliper method relative to control. Type of data set: functional, Ri-1. For orientation: A xenograft is tissue or cells of one species grown in another, often human tumour cells in immunodeficient mice.
Data set [7] relates to JeKo-1. The experiment in a line: cells. The settings on record: Homo sapiens, JeKo-1, 72 h.
Data set [8] can be described thus: cells. To be noted: Homo sapiens, MEC1, 72 h.
Data set [9] can be described thus: cells. To be noted: Homo sapiens, Ri-1, 72 h.
Data set [10] can be described thus: Toxicity in NOD-SCID nude mouse xenografted with human Ri1 cells assessed as body weight loss at 100 mg/kg, ip once every 5 days. The settings on record: in vivo, 360 h.
Data set [11] can be described thus: Toxicity in NOD-SCID nude mouse xenografted with human Ri1 cells assessed as body weight loss at 100 mg/kg, ip. The class given is organism-based. To be noted: in vivo.
Data set [12] concerns the target Tyrosine-protein kinase Yes (Homo sapiens) (UniProt P07947). The experiment in a line: Inhibition of wild-type human partial length YES (T257 to L543 residues) expressed in bacterial expression system at 1 uM by Kinomescan method relative to control.
Data set [13] has as its target Tyrosine-protein kinase Lyn (Homo sapiens) (UniProt P07948). The experiment in a line: Inhibition of wild-type human partial length LYN (C219 to Q511 residues) expressed in bacterial expression system at 1 uM by Kinomescan method relative to control.
Data set [14] concerns the target Tyrosine-protein kinase CSK (Homo sapiens) (UniProt P41240). The experiment in a line: Inhibition of wild-type human full length CSK (M1 to L450 residues) expressed in bacterial expression system at 1 uM by Kinomescan method relative to control.
The target of data set [15] is Tyrosine-protein kinase BTK (Homo sapiens) (UniProt Q06187). Description: Inhibition of wild-type human full length BTK (M1 to S659 residues) expressed in mammalian expression system at 1 uM by Kinomescan method relative to control.
For data set [16], the system named is HUVEC. Description: Antiangiogenic activity against HUVEC cells assessed as reduction in total branching points incubated for 15 hrs by matrigel-based assay relative to control. The class given is functional, Homo sapiens.
The subject of data set [17] is HUVEC. The experiment in a line: Antiangiogenic activity against HUVEC cells assessed as reduction in tube formation incubated for 15 hrs by matrigel-based assay relative to control. Type of data set: functional, Homo sapiens.
Data set [18] has as its system HUVEC. The experiment in a line: Antiangiogenic activity against HUVEC cells assessed as reduction in total loops incubated for 15 hrs by matrigel-based assay relative to control. Type of data set: functional, Homo sapiens.
A short description of data set [19]: Toxicity in NOD-SCID nude mouse xenografted with human Ri1 cells assessed as swelling surrounding the area of injection at 100 mg/kg, ip. The settings on record: in vivo. Type of data set: organism-based.

Structures are written as SMILES.

Chain of Tyrosine-protein kinase CSK (Homo sapiens) (P41240 2-450 limits assumed): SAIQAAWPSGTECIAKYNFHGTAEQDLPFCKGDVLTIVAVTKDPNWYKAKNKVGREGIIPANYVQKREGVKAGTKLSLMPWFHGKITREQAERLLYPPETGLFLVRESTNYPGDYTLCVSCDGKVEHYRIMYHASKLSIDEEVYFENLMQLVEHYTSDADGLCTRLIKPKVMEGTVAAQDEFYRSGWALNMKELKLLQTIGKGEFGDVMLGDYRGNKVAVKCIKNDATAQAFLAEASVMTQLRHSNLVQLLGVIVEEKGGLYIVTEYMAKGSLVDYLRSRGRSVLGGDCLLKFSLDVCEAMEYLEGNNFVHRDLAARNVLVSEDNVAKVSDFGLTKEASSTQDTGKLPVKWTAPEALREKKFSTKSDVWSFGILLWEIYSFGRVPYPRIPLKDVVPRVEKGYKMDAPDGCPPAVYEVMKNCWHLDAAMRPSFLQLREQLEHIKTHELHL
Chain of Tyrosine-protein kinase Yes (Homo sapiens) (P07947 2-543 limits assumed): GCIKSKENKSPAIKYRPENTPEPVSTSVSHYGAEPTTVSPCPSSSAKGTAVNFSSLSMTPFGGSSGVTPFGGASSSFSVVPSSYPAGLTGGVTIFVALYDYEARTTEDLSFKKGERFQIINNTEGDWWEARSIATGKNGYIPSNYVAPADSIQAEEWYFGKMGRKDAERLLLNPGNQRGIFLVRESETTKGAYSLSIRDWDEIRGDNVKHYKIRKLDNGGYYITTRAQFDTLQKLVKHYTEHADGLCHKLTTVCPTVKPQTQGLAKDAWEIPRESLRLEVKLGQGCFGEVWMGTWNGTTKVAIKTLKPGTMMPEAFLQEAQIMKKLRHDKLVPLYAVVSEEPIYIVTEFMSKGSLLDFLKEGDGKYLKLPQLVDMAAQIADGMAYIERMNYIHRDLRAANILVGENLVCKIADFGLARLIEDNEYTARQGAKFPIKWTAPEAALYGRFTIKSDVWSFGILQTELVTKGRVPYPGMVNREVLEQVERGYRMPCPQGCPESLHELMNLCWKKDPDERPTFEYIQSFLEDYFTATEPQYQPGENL
Chain of Tyrosine-protein kinase Lyn (Homo sapiens) (P07948 2-512 limits assumed): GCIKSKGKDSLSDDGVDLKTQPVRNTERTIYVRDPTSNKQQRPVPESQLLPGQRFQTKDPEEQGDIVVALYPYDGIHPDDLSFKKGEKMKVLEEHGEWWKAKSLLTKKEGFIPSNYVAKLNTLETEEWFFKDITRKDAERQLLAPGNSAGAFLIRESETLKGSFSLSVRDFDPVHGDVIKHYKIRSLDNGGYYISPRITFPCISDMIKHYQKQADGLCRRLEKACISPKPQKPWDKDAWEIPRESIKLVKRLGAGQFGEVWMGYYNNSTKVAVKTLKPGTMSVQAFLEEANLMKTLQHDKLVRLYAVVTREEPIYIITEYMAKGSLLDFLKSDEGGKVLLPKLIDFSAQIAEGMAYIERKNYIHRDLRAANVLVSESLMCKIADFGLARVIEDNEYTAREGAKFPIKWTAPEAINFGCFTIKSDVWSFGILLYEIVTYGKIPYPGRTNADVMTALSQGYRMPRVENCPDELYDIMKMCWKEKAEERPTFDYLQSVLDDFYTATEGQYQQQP
Chain of Tyrosine-protein kinase BTK (Homo sapiens) (Q06187 whole entry, the tested form may be a part): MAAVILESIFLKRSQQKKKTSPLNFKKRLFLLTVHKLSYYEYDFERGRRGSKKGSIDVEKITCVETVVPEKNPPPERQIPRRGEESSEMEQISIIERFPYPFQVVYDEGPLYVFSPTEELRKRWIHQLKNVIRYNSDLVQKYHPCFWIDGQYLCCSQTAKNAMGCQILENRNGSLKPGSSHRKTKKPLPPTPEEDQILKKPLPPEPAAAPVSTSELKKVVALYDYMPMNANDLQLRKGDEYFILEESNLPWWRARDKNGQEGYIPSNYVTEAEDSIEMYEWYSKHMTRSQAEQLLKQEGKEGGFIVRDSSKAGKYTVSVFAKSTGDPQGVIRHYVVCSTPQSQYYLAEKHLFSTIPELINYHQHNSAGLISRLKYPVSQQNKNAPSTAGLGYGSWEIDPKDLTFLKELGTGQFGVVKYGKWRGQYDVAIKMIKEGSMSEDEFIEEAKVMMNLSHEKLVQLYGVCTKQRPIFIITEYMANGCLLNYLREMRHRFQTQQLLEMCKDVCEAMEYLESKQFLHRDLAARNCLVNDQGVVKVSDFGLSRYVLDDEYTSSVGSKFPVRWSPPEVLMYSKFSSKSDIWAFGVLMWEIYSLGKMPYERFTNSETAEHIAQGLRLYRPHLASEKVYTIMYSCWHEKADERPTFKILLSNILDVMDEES

As to `CC(C)(C)c1cc(NC(=O)Nc2ccc(-n3c(N)c(C(N)=O)c4nc5ccccc5nc43)cc2)n(-c2ccc3ncccc3c2)n1`, the IC50 in [1], in [4], in data set [5], in data set [7], in [8] and in data set [9] was 250 nM each time. Moreover, the ΔTm (as a rule, the shift of the melting midpoint relative to a reference) in data set [2] is 19.3 °C. Further, the EC50 – broadly, the concentration needed to bring the measured effect to its halfway point – in data set [3] came to 1100 nM. The “fold change (FC)” value in data set [6] is given as 3. Also, the Activity result in data set [10] is “Non-Toxic”.
Take `Cc1ccc(-n2nc(C(C)(C)C)cc2NC(=O)Nc2ccc(-n3c(N)c(C(N)=O)c4nc5ccccc5nc43)cc2)cc1`: the Activity entry in data set [11] and in [19] was “Toxic” each time. Also, the % control in data set [12] was 9.6%; in [13], 0.85%; in data set [14] it was 0.9%; in [15] it was 0.95%. Also, the IC50 in data set [1], in [4], in [5], in data set [7], in data set [8] and in data set [9] was 600 nM each time. For the same compound, the ΔTm in data set [2] amounted to 17.3 °C. Also, the EC50 in [3] amounted to 360 nM. Moreover, the “inhibition (INH)” value in data set [16] stood at 90%; in data set [17], 65%; in data set [18], 100%.
With `Cc1ccc(-n2nc(C(C)(C)C)cc2NC(=O)Nc2ccc(-n3c(N)c(C(N)=O)c4nc5ccc(NCCCN)cc5nc43)cc2)cc1`, the % control was 1.9% in data set [12], 0.5% in data set [13], 0.65% in [14] and 3.3% in data set [15].
